In one test the target is T1, C3a receptor (Homo sapiens, UniProt Q16581).
T1 sequence (Q16581 1-482): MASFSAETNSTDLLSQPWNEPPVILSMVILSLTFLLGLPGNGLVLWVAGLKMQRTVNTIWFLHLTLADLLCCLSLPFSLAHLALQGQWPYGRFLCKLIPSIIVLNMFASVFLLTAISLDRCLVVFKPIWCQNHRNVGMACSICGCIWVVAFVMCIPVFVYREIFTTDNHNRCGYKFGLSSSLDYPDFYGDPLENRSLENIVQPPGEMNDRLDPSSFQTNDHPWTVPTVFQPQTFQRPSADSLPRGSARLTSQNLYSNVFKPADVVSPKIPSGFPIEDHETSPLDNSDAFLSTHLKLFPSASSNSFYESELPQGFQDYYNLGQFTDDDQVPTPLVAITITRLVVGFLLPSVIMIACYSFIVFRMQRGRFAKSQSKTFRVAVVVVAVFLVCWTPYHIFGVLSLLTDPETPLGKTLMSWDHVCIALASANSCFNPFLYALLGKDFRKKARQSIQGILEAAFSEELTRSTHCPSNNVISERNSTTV
In words: Ca2+-flux assay for C3a receptor antagonism in transfected HEK293 cells. The class given is cell-based. The conditions noted are these: antagonist 10 nM, mouse TLQP-21 1 μM; HEK293 transfected with C3a receptor and GNA16; Fluo-4; vs control; FIG. 6.

Test [1] deals with AEW model mice (C57BL/6J). Put plainly: Scratching behavior in AEW model mice given C3a receptor antagonist. Type of test: in vivo, mouse. The conditions noted are these: 200 μL subcutaneous, Compound 1 0.5 mg/mL, Compound 2 0.05 mg/mL, once daily for 8 days; measured for 3 hours after last administration; vs solvent alone; FIG. 8. The source says: The animals used were male C57BL/6J mice.
Preparation of AEW model: The back of the neck was shaved, and absorbent cotton soaked with a 1:1 (v/v) mixture of acetone and diethyl ether was applied and allowed to stand for 15 seconds. Immediately thereafter, absorbent cotton soaked with water was applied for 30 seconds. This treatment was repeated twice/day (morning and evening) for 7 days.
Compound 1 or Compound 2, whose C3a receptor antagonism was confirmed in Example 4 above, was used as a C3a receptor antagonist. Compound 1 or Compound 2 was dissolved in saline containing 20% polyethylene glycol 400, of which 200 μL was administered subcutaneously to the back of the neck. The control group was administered with the same amount of only the above solvent. The concentration of the C3a receptor antagonist solution was set at 0.5 mg/mL for Compound 1 and 0.05 mg/mL for Compound 2. Sample administration started after the first AEW treatment and was performed at a frequency of once daily for 8 days.
Sixteen hours after the last AEW treatment, the scratching behavior was measured for 3 hours after the last administration of the sample. MicroAct (Neuroscience) was used to measure the scratching behavior.

Test [2] has as its system AD model mice (NC/Nga, mite allergen-induced). In words: Scratching behavior in AD model mice given C3a receptor antagonist. The conditions noted are these: 200 μL subcutaneous, Compound 1 0.5 mg/mL, Compound 2 0.05 mg/mL, three times a week; measured for 3 hours after last administration; vs solvent alone; FIG. 7. The class given is in vivo, mouse. As for the experimental part: Seven-week-old female NC/Nga mice were used.
Preparation of AD model mice: The back of the neck was shaved, and 100 mg of an ointment containing mite allergen: Biostir AD (Biostir Inc.) was applied to the back of the neck and auricular region under isoflurane anesthesia for initial sensitization. Four days after the first application of the ointment containing mite allergen, 150 μL of 4% (w/v) SDS solution and 100 mg of ointment containing mite allergen were applied to the back of the neck and auricular region under isoflurane anesthesia. Thereafter, the same procedure was performed four times at a frequency of once every 3 to 4 days to induce AD-like dermatitis.
Compound 1 or Compound 2, whose C3a receptor antagonism was confirmed in Example 4 above, was used as a C3a receptor antagonist. Compound 1 or Compound 2 was dissolved in saline containing 20% polyethylene glycol 400, of which 200 μL was administered subcutaneously to the back of the neck. The control group was administered with the same amount of only the above solvent. The concentration of the C3a receptor antagonist solution was set at 0.5 mg/mL for Compound 1 and 0.05 mg/mL for Compound 2. […]
Four days after the last application of the ointment containing mite allergen, the scratching behavior was measured for 3 hours after the last administration of the sample. […]

On to `N=C(N)NCCC[C@H](NC(=O)c1ccc(C(c2ccccc2)c2ccccc2)s1)C(=O)O` [Compound 1, L-arginine, N2-[[5-(diphenylmethyl)-2-thienyl]carbonyl]], for which the “Fluorescence intensity due to C3a receptor stimulation by TLQP-21 (Ca2+ influx, integrated over 3 min)” value on C3a receptor was “greatly suppressed”. Moreover, the Scratching behavior entry in test [1] and in test [2] was “significant decrease” each time.
With `Cc1cc(C(c2ccc(Cl)cc2)c2ccc(Cl)cc2)sc1C(=O)N[C@@H](CCCNC(=N)N)C(=O)O` [Compound 2, L-arginine, N2-[[5-[bis(4-chlorophenyl)methyl]-3-methyl-2-thienyl]carbonyl]], on C3a receptor, the “Fluorescence intensity due to C3a receptor stimulation by TLQP-21 (Ca2+ influx, integrated over 3 min)” value was “greatly suppressed”. For the same compound, the Scratching behavior entry in test [1] and in test [2] was “significant decrease” in each case.

The values are drawn from patent US20240115546A1, “AGENT FOR PREVENTING OR AMELIORATING PRURITUS” (KAO CORPORATION, priority 2021, published 2024).
